{"source": "patent US9796673B2", "about": "(TEVA PHARMACEUTICALS INTERNATIONAL GMBH, priority 2014, dated 2017)", "key": {"[1]": {"settings": "acid; cited from earlier work"}, "[2]": {"experiment": "Dynamic vapor sorption (DVS) hygroscopicity", "format": "physicochemical", "settings": "for Hygroscopicity 40% RH: Table 3, 40% RH; for Hygroscopicity 75% RH: Table 3, 75% RH; for Hygroscopicity 90% RH: Table 3, 90% RH", "procedure": "DVS—Measurement of Dynamic Vapor Sorption: DVS experiments have been carried out using the DVS-HT instrument (Surface Measurement Systems, London, UK). This instrument measures the uptake and loss of vapor gravimetrically using a recording ultra-microbalance with a mass resolution of ±0.1 μg. The vapor partial pressure (±1.0%) around the sample is controlled by mixing saturated and dry carrier gas streams using electronic mass flow controllers. The desired temperature is maintained at ±0.1° C. […] The sample was loaded and unloaded at 40% RH and 25° C. (typical room conditions). A moisture sorption isotherm was performed as outlined below (2 scans giving 1 complete cycle). The software uses a least squares minimization procedure together with a model of the mass relaxation, to predict an asymptotic value. The measured mass equilibration value must be within 2% of that predicted by the software before proceeding to the next % RH value. The minimum equilibration time was set to 1 hour and the maximum to 4 hours."}, "[3]": {"settings": "for pH: pH column of water solubility table (Table 2)", "quoted_text": "Estimation of Water Solubility: A kinetic solubility experiment was performed. Powder samples were placed in glass vials and shaken for 20 minutes in water. […] The samples were then centrifuged to insure that no solids remained. The concentration of pridopidine in the supernatant was measured by HPLC and calculated based on a standard curve. […] Excess pridopidine was suspended in the solutions in glass vials and shaken for 72 hours at 25° C. The samples were then centrifuged and the pH of the supernatant was measured. The concentration of pridopdine in the supernatant was measured by HPLC and calculated based on a standard curve."}, "[4]": {"settings": "WO 01/46145 salt; cited from earlier work"}, "[5]": {"settings": "4 week, 40° C. and 75% RH"}}, "note": "Where a name gives a salt, the structure may show the parent alone.", "data": [{"molecule": "O=S(=O)(O)c1ccccc1", "note": "[Benzene sulfonic acid]", "values": [{"measurement": "pKa1", "setting": "[1]", "result": 0.70}]}, {"molecule": "O=C(O)CO", "note": "[Glycolic acid]", "values": [{"measurement": "pKa1", "setting": "[1]", "result": 3.28}]}, {"molecule": "Br.CCCN1CCC(c2cccc(S(C)(=O)=O)c2)CC1", "note": "[HBr, reference compound]", "values": [{"measurement": "Hygroscopicity 40% RH", "setting": "[2]", "result": 0.04, "unit": "%"}, {"measurement": "Hygroscopicity 75% RH", "setting": "[2]", "result": 0.08, "unit": "%"}, {"measurement": "Hygroscopicity 90% RH", "setting": "[2]", "result": 0.12, "unit": "%"}]}, {"molecule": "CCCN1CCC(c2cccc(S(C)(=O)=O)c2)CC1", "note": "[Hydrochloride, pridopidine hydrochloride, reference compound]", "values": [{"measurement": "pH", "setting": "[3]", "result": 6.0}, {"measurement": "relative humidities at which non-hygroscopic", "setting": "[4]", "result": "below 86%"}, {"measurement": "relative humidity in excess of which deliquescent", "setting": "[4]", "result": "> 86", "unit": "%"}, {"measurement": "Hygroscopicity 40% RH", "setting": "[2]", "result": 0.1, "unit": "%"}, {"measurement": "Hygroscopicity 75% RH", "setting": "[2]", "result": 0.45, "unit": "%"}, {"measurement": "Hygroscopicity 90% RH", "setting": "[2]", "result": 7.3, "unit": "%"}]}, {"molecule": "O=S(=O)(O)c1ccc2ccccc2c1", "note": "[Naphthalene 2-sulfonic acid]", "values": [{"measurement": "pKa1", "setting": "[1]", "result": 0.17}]}, {"molecule": "CCCN1CCC(c2cccc(S(C)(=O)=O)c2)CC1.CCCN1CCC(c2cccc(S(C)(=O)=O)c2)CC1.O=C(O)CCC(=O)O", "note": "[Succinate (hemi), pridopidine succinate (hemi)]", "values": [{"measurement": "Deliquescence during the DVS test", "setting": "[2]", "result": "deliquesced"}, {"measurement": "DVS weight gain", "setting": "[2]; 40% RH", "result": 3, "unit": "%"}, {"measurement": "DVS weight gain", "setting": "[2]; 70% RH", "result": 4, "unit": "%"}, {"measurement": "DVS weight gain", "setting": "[2]; 90% RH", "result": 37, "unit": "%"}, {"measurement": "Hygroscopicity 40% RH", "setting": "[2]", "result": 3, "unit": "%"}, {"measurement": "Hygroscopicity 75% RH", "setting": "[2]", "result": 40, "unit": "%"}, {"measurement": "Hygroscopicity 90% RH", "setting": "[2]", "result": 70, "unit": "%"}]}, {"molecule": "pridopidine L-malate", "values": [{"measurement": "Water solubility, Conc.", "setting": "[3]; kinetic, in water, shaken 20 minutes", "result": 76, "unit": "mg/mL"}, {"measurement": "pH", "setting": "[3]", "result": 3.9}, {"measurement": "chemical and physical stability", "setting": "[5]", "result": "acceptable"}, {"measurement": "Hygroscopicity 40% RH", "setting": "[2]", "result": 0.1, "unit": "%"}, {"measurement": "Hygroscopicity 75% RH", "setting": "[2]", "result": 0.2, "unit": "%"}, {"measurement": "Hygroscopicity 90% RH", "setting": "[2]", "result": 17.2, "unit": "%"}]}, {"molecule": "pridopidine tosylate", "values": [{"measurement": "XRPD pattern before and after the DVS test", "setting": "[2]", "result": "no change in XRPD pattern"}, {"measurement": "DVS weight gain", "setting": "[2]; 40% RH", "result": 0.02, "unit": "%"}, {"measurement": "DVS weight gain", "setting": "[2]; 70% RH", "result": 0.1, "unit": "%"}, {"measurement": "DVS weight gain", "setting": "[2]; 90% RH", "result": 0.2, "unit": "%"}, {"measurement": "Hygroscopicity 40% RH", "setting": "[2]", "result": 0.02, "unit": "%"}, {"measurement": "Hygroscopicity 75% RH", "setting": "[2]", "result": 0.1, "unit": "%"}, {"measurement": "Hygroscopicity 90% RH", "setting": "[2]", "result": 0.2, "unit": "%"}]}]}
